Data reported in ChEMBL document CHEMBL1201862, “PubChem BioAssay data set” (2004).
Active and inactive are the calls of the source.

Assays:
[1] = HEp-2 cell cytotoxicity, dose response, cytotoxicity control for RSV inhibitor project, HTS (AID 2410); type: functional; conditions: human respiratory syncytial virus
[2] = cytotoxicity in HEK-293T cells, dose response, cytotoxicity control for TCR NF-kB inhibitor project, luminescence, T-cell screen hits (AID 489026); type: functional, cell-based;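 further: cells exposed to compound about 14 hours before the viability readout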
[3] = Shn3 3'UTR reporter inhibitors, dose response, cell-based, Clone20 osteoblasts, firefly luciferase, cherry-picked (AID 624132); type: functional;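 further: firefly luciferase luminescence from reporter carrying the Shn3 3'UTR in osteoblasts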
[4] = A549 cell cytotoxicity, dose response, cytotoxicity control, plate reader, cherry-pick, antagonist series (AID 743412); type: functional, cell-based
[5] = HepG2 cell cytotoxicity, dose response, cytotoxicity control, plate reader, cherry-pick, antagonist series (AID 743416); type: functional, cell-based
[6] = LGR2 antagonists, dose response, cell-based, HEK293, CRE-luciferase reporter, cherry pick, set 2 (AID 743343); type: functional;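 further: transfected cells were stimulated with diluted bursicon conditioned medium after compound addition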
[7] = MC4R antagonists, dose response, counter-screen for LGR2 antagonist project, cell-based, plate reader, cherry pick (AID 743444); type: functional;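 further: transfected HEK 293 cells stimulated with alpha-MSH peptide; potency of inhibitors of the alpha-MSH evoked signal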
[8] = HEK293 cell cytotoxicity, dose response, cytotoxicity control, plate reader, cherry-picked samples (AID 743446); type: functional, cell-based
Large T antigen = Large T antigen (Simian virus 40, UniProt P03070); type: functional, Betapolyomavirus macacae;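 further: Confirmatory-stage PubChem screen for compounds that inhibit SV40 T antigen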
Large T antigen, sequence (P03070 whole entry): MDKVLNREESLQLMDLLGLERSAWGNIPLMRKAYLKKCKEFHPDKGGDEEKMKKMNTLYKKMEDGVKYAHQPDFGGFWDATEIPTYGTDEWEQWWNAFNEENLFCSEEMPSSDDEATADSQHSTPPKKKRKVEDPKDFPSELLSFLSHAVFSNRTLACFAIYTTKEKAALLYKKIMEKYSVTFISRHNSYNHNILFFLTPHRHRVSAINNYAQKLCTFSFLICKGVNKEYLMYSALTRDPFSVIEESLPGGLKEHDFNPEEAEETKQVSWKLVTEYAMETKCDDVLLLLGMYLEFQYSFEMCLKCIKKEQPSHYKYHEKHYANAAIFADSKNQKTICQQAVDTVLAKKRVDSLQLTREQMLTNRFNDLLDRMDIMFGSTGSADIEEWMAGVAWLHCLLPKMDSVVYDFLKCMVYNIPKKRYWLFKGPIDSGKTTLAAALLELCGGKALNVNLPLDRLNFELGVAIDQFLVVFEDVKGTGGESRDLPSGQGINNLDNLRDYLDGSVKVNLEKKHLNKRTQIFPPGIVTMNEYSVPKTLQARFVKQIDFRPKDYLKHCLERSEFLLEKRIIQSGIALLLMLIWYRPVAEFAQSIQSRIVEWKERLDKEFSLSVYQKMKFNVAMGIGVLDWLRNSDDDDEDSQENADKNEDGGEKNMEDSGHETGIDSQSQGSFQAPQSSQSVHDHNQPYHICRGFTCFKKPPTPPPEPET

Cytochrome P450 3A4 = Cytochrome P450 3A4 (Homo sapiens, UniProt P08684); conditions: Potency;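 further: confirmatory qHTS run detecting inhibitors and substrates of CYP3A4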
Cytochrome P450 3A4, sequence (P08684 whole entry): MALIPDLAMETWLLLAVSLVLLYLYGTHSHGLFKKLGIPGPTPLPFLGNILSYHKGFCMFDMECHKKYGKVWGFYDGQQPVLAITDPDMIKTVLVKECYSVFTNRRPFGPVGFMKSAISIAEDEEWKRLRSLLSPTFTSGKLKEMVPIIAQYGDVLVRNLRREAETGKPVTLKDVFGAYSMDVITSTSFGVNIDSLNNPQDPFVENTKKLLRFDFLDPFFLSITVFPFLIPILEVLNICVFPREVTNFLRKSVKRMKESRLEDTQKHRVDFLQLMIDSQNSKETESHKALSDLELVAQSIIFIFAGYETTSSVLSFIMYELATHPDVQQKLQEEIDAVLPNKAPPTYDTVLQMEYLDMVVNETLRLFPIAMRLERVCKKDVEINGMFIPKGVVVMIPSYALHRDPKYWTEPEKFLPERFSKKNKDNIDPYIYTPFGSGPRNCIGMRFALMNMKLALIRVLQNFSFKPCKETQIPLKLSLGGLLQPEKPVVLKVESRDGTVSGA

[9] = P. falciparum Dd2 growth inhibitors, dose response, SYBR Green, cherry-picked samples (AID 1159567); type: functional, cell-based
[10] = biological target: T1, Replicative DNA helicase DnaB (Mycobacterium tuberculosis, UniProt P9WMR3); assay: DnaB intein splicing inhibitors, dose response, biochemical, cell-free fluorescence (AID 449749); type: functional
T1 sequence (P9WMR3 whole entry): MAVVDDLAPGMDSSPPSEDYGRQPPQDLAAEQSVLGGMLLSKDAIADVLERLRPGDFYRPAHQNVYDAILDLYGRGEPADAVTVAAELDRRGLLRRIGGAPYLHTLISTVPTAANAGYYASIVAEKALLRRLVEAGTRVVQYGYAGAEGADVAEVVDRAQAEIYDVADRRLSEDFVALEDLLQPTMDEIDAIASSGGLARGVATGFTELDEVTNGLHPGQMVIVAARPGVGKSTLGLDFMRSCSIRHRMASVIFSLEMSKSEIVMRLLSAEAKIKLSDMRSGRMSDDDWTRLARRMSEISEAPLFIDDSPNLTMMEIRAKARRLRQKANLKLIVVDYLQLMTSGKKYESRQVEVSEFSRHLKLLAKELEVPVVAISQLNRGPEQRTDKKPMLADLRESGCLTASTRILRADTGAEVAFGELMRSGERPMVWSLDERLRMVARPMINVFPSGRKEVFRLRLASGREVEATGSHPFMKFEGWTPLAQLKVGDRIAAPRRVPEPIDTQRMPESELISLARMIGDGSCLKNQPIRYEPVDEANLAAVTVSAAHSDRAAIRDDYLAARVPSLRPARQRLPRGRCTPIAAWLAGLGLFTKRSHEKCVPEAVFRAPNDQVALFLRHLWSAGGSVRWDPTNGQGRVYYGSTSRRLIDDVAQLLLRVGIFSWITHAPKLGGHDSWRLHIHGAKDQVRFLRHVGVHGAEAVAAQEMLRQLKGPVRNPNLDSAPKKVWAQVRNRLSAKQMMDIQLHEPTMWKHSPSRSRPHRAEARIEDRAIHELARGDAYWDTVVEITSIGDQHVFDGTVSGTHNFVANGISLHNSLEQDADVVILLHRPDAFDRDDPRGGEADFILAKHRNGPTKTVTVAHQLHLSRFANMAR

Protein RecA = biological target: T2, Protein RecA (Mycobacterium tuberculosis, UniProt P9WHJ3); assay: Fluorescence Cell-Free Homogeneous Dose Retest to Identify Inhibitors of RecA-Intein Splicing Activity. [Related pubchem assays (depositor defined):AID2097, AID2223, AID489010, AID492950]; type: functional
T2 sequence (P9WHJ3 whole entry): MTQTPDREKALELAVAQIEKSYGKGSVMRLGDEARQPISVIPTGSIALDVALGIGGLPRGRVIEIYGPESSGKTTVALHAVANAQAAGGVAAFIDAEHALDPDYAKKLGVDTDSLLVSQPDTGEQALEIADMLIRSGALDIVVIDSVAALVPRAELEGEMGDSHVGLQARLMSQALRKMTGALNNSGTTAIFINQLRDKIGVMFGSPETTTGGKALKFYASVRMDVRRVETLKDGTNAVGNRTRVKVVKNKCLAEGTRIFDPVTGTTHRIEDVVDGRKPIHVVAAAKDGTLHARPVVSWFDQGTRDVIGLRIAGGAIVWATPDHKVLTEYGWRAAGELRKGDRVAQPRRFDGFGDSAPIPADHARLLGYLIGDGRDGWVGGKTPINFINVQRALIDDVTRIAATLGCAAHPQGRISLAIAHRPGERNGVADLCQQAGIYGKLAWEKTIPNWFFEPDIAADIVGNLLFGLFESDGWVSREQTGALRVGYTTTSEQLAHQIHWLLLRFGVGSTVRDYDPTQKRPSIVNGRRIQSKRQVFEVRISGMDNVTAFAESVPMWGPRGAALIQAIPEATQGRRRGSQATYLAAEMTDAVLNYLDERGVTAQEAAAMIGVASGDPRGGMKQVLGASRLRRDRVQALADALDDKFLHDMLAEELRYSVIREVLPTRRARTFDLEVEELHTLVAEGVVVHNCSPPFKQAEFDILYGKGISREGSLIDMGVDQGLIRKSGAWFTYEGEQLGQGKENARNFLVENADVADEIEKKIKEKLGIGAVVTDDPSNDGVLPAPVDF

P388/ADR = assay: cells; type: functional; conditions: Mus musculus
SN12K1 = assay: cells; type: functional; conditions: Homo sapiens
P388 = assay: cells; type: functional; conditions: Mus musculus

With `COC(=O)c1cn(NC(=O)c2cc([N+](=O)[O-])ccc2F)c(=O)c2ccccc12` the CC50 [1] was 3.87 µM (active), the IC50 [2] was > 80 µM (inactive) and the AC50 [3] was 2.85 µM (active).

With `Cc1cccc(N2CCN(C(=O)c3c(-c4ccccc4Cl)noc3C)CC2)c1C` the IC50 [2] was > 80 µM (inactive).

For `NC(c1ccccc1)c1csc(NC(=O)Nc2cccc(Cl)c2)n1` (stereo not drawn), the AC50 [4] was 21.1 µM (active), the AC50 [5] was 16.3 µM (active) and the AC50 [6] was 28.8 µM (active). The AC50 [7] was 36.7 µM (active) and the AC50 [8] was 50.9 µM (active).

With `Cc1occc1C(=O)N/N=C/C=C/c1ccc(N(C)C)cc1` the IC50 (Large T antigen) was 19.7 µM (active).

With `CCCCCCN(C(=O)CCCCCN1C(=O)NC(c2ccc(-c3ccccc3)cc2)C(C(=O)OCc2ccccc2)=C1C)C(C(=O)NCCCC)c1ccc(OCC(=O)O)c(C(=O)O)c1` (stereo not drawn) the AC50 (Cytochrome P450 3A4) was 15.8 µM (inconclusive).

With `Cc1ccccc1OCCCN1CCC(C(O)(c2ccccc2)c2ccccc2)CC1` the AC50 [4] was 25.7 µM (active), the AC50 [5] was 22.6 µM (active) and the AC50 [6] was 19.9 µM (active). For the same compound, the AC50 [7] was 18.5 µM (active) and the AC50 [8] was 16.1 µM (active).

For `CC(C)NC(=O)N1[C@H](CO)[C@@H](c2ccccc2)C12CN(Cc1ccc(Cl)cc1)C2`, the AC50 [9] was 4.74 µM (active).

For `CO[C@@H]1CN(C)C(=O)c2cc(NC(=O)c3nc4ccccc4s3)ccc2OC[C@@H](C)N(Cc2ccccc2)C[C@H]1C`, the AC50 [9] was 3.99 µM (active).

With `Nc1ccc(O)cc1` [4-AMINOPHENOL] the AC50 [10] was > 380 µM (inactive), the EC50 (Protein RecA) was > 380 µM (inconclusive) and the AC50 (Cytochrome P450 3A4) was 25.1 µM (inconclusive).

In the case of `COC(=O)[C@@]12OC[C@]34[C@H]([C@@H](O)[C@@H]1O)[C@@]1(C)CC(=O)C(O)=C(C)[C@@H]1C[C@H]3OC(=O)[C@H](OC(=O)/C=C(\C)C(C)C)[C@@H]24` [BRUCEANTIN], the GI50 (P388/ADR) is reported as 0.0244 µM (active), the GI50 (SN12K1) is reported as 0.02 µM (active) and the GI50 (P388) is reported as 0.021 µM (active).

With `C=CC(C1=CC(=O)C(OC)=CC1=O)c1ccc(O)cc1` (stereo not drawn) [DALBERGIONE, 4-METHOXY-4'-HYDROXY-] the AC50 (Cytochrome P450 3A4) was 25.1 µM (inconclusive).

With `Cc1cc(O)c2c(=O)c3c(O)cc(O)c4c5c(O)cc(O)c6c(=O)c7c(O)cc(C)c8c1c2c(c34)c(c78)c65` [HYPERICIN] the GI50 (P388/ADR) was 49.2 µM (inactive), the GI50 (SN12K1) was 92.7 µM (inactive) and the GI50 (P388) was 11.9 µM (inactive).
